Reference: the NIST ThermoML archive (doi:10.1016/j.jct.2007.07.002)
Numbers after ± are expanded uncertainties.

Conditions: Gas, double Helmholtz acoustic resonator

N [ammonia]
Conditions	kinematic viscosity [m2/s]	speed of sound [m/s]
300 K, 223.53 kPa	6.47e-06 ± 1.4e-07	431 ± 0.26
300 K, 259.87 kPa	5.47e-06 ± 3.2e-07	429.55 ± 0.26
300 K, 329.51 kPa	4.32e-06 ± 5.2e-08	428.07 ± 0.26
300 K, 361.99 kPa	3.95e-06 ± 7.2e-08	426.77 ± 0.26
300 K, 447.86 kPa	3.14e-06 ± 3.8e-08	424.67 ± 0.26
300 K, 465.77 kPa	3.02e-06 ± 5.4e-08	423.73 ± 0.26
300 K, 568.68 kPa	2.45e-06 ± 2.9e-08	421.02 ± 0.25
300 K, 569.79 kPa	2.45e-06 ± 4.4e-08	420.63 ± 0.25
300 K, 676.75 kPa	2.03e-06 ± 2.4e-08	417.61 ± 0.25
300 K, 692.8 kPa	1.98e-06 ± 5.6e-08	416.7 ± 0.25
300 K, 802.37 kPa	1.71e-06 ± 2.6e-08	413.01 ± 0.25
300 K, 802.82 kPa	1.7e-06 ± 2e-08	413.38 ± 0.25
315 K, 250.83 kPa	6.41e-06 ± 7.8e-08	441.42 ± 0.27
315 K, 378.83 kPa	4.19e-06 ± 6.8e-08	438.52 ± 0.26
315 K, 506.43 kPa	3.08e-06 ± 3.7e-08	435.46 ± 0.26
315 K, 661.04 kPa	2.34e-06 ± 2.8e-08	431.69 ± 0.26
315 K, 791.02 kPa	1.92e-06 ± 2.3e-08	428.35 ± 0.26
315 K, 938.74 kPa	1.59e-06 ± 1.9e-08	424.43 ± 0.26
315 K, 1080.9 kPa	1.36e-06 ± 1.6e-08	420.46 ± 0.25
315 K, 1285 kPa	1.13e-06 ± 1.4e-08	414.39 ± 0.25
330 K, 308.27 kPa	5.77e-06 ± 1.5e-07	450.9 ± 0.27
330 K, 473.84 kPa	3.68e-06 ± 4.4e-08	447.68 ± 0.27
330 K, 664.29 kPa	2.58e-06 ± 3.1e-08	443.84 ± 0.27
330 K, 822.59 kPa	2.06e-06 ± 2.5e-08	440.54 ± 0.27
330 K, 977.41 kPa	1.71e-06 ± 2.1e-08	437.21 ± 0.26
330 K, 1142.1 kPa	1.44e-06 ± 1.7e-08	433.54 ± 0.26
330 K, 1294.8 kPa	1.25e-06 ± 1.5e-08	430.01 ± 0.26
330 K, 1480.5 kPa	1.08e-06 ± 1.3e-08	425.54 ± 0.26
330 K, 1640.8 kPa	9.57e-07 ± 1.2e-08	421.5 ± 0.25
330 K, 1792 kPa	8.66e-07 ± 1e-08	417.52 ± 0.25
330 K, 1945.8 kPa	7.91e-07 ± 9.5e-09	413.28 ± 0.25
345 K, 297.74 kPa	6.5e-06 ± 7.8e-08	461.31 ± 0.28
345 K, 504.54 kPa	3.78e-06 ± 4.5e-08	457.91 ± 0.28
345 K, 708.88 kPa	2.67e-06 ± 3.2e-08	454.47 ± 0.27
345 K, 914.14 kPa	2.04e-06 ± 2.5e-08	450.88 ± 0.27
345 K, 1123.2 kPa	1.64e-06 ± 2e-08	447.09 ± 0.27
345 K, 1332.1 kPa	1.36e-06 ± 1.6e-08	443.17 ± 0.27
345 K, 1537 kPa	1.16e-06 ± 1.4e-08	439.19 ± 0.26
345 K, 1744.6 kPa	1e-06 ± 1.2e-08	435.01 ± 0.26
345 K, 1955.1 kPa	8.8e-07 ± 1.1e-08	430.58 ± 0.26
345 K, 2315.6 kPa	7.21e-07 ± 8.7e-09	422.55 ± 0.25
345 K, 2530 kPa	6.5e-07 ± 7.8e-09	417.46 ± 0.25
345 K, 2769 kPa	5.84e-07 ± 7e-09	411.45 ± 0.25
360 K, 242.7 kPa	8.74e-06 ± 1.1e-07	471.71 ± 0.28
360 K, 453.28 kPa	4.68e-06 ± 8.2e-08	468.86 ± 0.28
360 K, 661.35 kPa	3.16e-06 ± 3.8e-08	465.91 ± 0.28
360 K, 865.15 kPa	2.39e-06 ± 2.9e-08	462.91 ± 0.28
360 K, 1069.7 kPa	1.9e-06 ± 2.3e-08	459.84 ± 0.28
360 K, 1277.8 kPa	1.57e-06 ± 1.9e-08	456.62 ± 0.27
360 K, 1481.2 kPa	1.34e-06 ± 1.6e-08	453.38 ± 0.27
360 K, 1690.7 kPa	1.16e-06 ± 1.4e-08	449.97 ± 0.27
360 K, 1894.8 kPa	1.02e-06 ± 1.2e-08	446.53 ± 0.27
360 K, 2277.4 kPa	8.28e-07 ± 9.9e-09	439.83 ± 0.27
360 K, 2480.7 kPa	7.49e-07 ± 9e-09	436.1 ± 0.26
360 K, 2738.8 kPa	6.66e-07 ± 8e-09	431.2 ± 0.26
360 K, 3050.5 kPa	5.85e-07 ± 7e-09	424.97 ± 0.26
360 K, 3365.4 kPa	5.19e-07 ± 6.2e-09	418.3 ± 0.25
375 K, 260.57 kPa	1.01e-05 ± 3.8e-06	480.64 ± 1.5
375 K, 483.31 kPa	4.9e-06 ± 8e-07	478.26 ± 0.4
375 K, 684.74 kPa	3.42e-06 ± 2.2e-07	475.65 ± 0.29
375 K, 897.66 kPa	2.57e-06 ± 6e-08	473 ± 0.28
375 K, 1130.7 kPa	1.96e-06 ± 6.8e-08	469.93 ± 0.28
375 K, 1341.7 kPa	1.63e-06 ± 4.2e-08	467.14 ± 0.28
375 K, 1583.8 kPa	1.37e-06 ± 1.6e-08	463.89 ± 0.28
375 K, 1793.4 kPa	1.2e-06 ± 2e-08	461.01 ± 0.28
375 K, 2026.3 kPa	1.04e-06 ± 1.4e-08	457.7 ± 0.28
375 K, 2290.4 kPa	9.12e-07 ± 1.1e-08	453.87 ± 0.27
375 K, 2599.9 kPa	7.94e-07 ± 1.2e-08	449.23 ± 0.27
375 K, 2933.1 kPa	6.9e-07 ± 8.3e-09	444.04 ± 0.27
375 K, 3140.5 kPa	6.38e-07 ± 8.2e-09	440.69 ± 0.27
375 K, 3379.2 kPa	5.88e-07 ± 9e-09	436.74 ± 0.26
